In patent US20190125867A1, “THERAPEUTIC AGENT FOR SOLID CANCER” (IDAC THERANOSTICS, INC., priority 2014, published 2019):

How the values were obtained:
[1] = test system: CD4+ cells in human peripheral blood mononuclear cells; assay: ADCC activity assay (Promega ADCC activity assay kit, PBMCs + ADCC Bioassay Effector cells); type: cell-based; settings: 12,500 PBMCs, 75,000 effector cells, 37° C. 6 hours; FIG. 1
Description: Measurement of the ADCC activity of IT1208 was carried out under the following conditions, according to the protocol for an ADCC activity assay kit sold by Promega. After gently mixing 12,500 PBMCs derived from a healthy individual, anti-CD4mAb (IT1208), and 75,000 ADCC Bioassay Effector cells contained in the Promega kit, the cells were cultured in a CO2 incubator at 37° C. for 6 hours. The luminescent reagent Bio-Glo reagent was added to the culture, and culturing was then continued at room temperature for 20 minutes, followed by measuring chemiluminescence using a luminescence plate reader.

[2] = test system: mouse melanoma cell line B16F10; assay: Tumor volume in C57BL/6 mice transplanted with melanoma cell line B16F10; type: in vivo; settings: Day 15
Description: On Day −2 (two days before the cancer cell transplantation), Day 0 (=day of cancer cell transplantation), Day 3, Day 5, Day 9, or Day 12, 0.2 mg of an anti-CD4 antibody (GK1.5; an antibody known to be capable of causing depletion of CD4+ cells in the mouse body by the CDC activity; manufactured by BioXcell) was intraperitoneally administered at one time. The solid tumor diameter was measured on Day 14, and the tumor volume was calculated by short diameter×short diameter×long diameter×π/6.
On Day 5, 3.125 μg, 12.5 μg, 50 μg, or 200 μg of the anti-CD4 antibody was administered (negative control group: no antibody was administered).
The solid tumor diameter in each mouse was measured, and the tumor volume was calculated (short diameter×short diameter×long diameter×π/6).
Thereafter, antibody administration was carried out as follows (Day 0=day of cancer cell transplantation).
The tumor volume was calculated (short diameter×short diameter×long diameter×π/6) from the solid tumor diameter measured on Day 18.
The tumor volume was calculated (short diameter×short diameter×long diameter×π/6) from the solid tumor diameter measured on Day 15.
The tumor volume was calculated (short diameter×short diameter×long diameter×π/6) from the solid tumor diameter measured on Day 16.

[3] = Example 7 (small molecule anticancer agents), anti-CD4 0.2 mg Day 5, 9, OXA 10, GEM 20, CPA 10 mg/kg Day 5, 9, 12, 16, FIG. 23

| Molecule | growth of solid tumor relative to control group [2, 3] [%] | also measured |
| --- | --- | --- |
| Rituximab |  | concentration at which ADCC activity began to be found [1]: ≥ 10 nM |
| O=P1(N(CCCl)CCCl)NCCCO1 (stereo not shown) [CPA, Cyclophosphamide] | 75 |  |
| Nc1ccn([C@@H]2O[C@H](CO)[C@@H](O)C2(F)F)c(=O)n1 [GEM, Gemcitabine] | 63 |  |
| O=c1[nH]cc(F)c(=O)[nH]1 [5-FU] |  | growth of solid tumor relative to control group ([2]; Example 4, anti-CD4 0.2 mg once Day 5, anti-CD137 0.1 mg Day 5-9, 5-FU 50 mg/kg four times, FIG. 13): 36% |
